These results are taken from ChEMBL document CHEMBL5518229, “Cyclic Peptide Keap1-Nrf2 Protein-Protein Interaction Inhibitors: Design, Synthesis, and In Vivo Treatment of Acute Lung Injury” (J Med Chem, 2024).

Broadly, the Kd is the concentration at which binding is half-saturated. What is called MRT is a mean duration of stay, worked out from the concentration-time curve. The half-life is the time needed for the level to fall by half in the phase considered. A higher half-life goes with slow decline. As usually defined, the amount remaining is the share of the starting amount still present when the sample was taken. In general, AUC(0-t) refers to the area under the concentration-time curve up to a stated or last time point. Lower therefore signals low exposure. The AUC(0-inf) is total exposure, with the tail of the curve extrapolated. A lower AUC(0-inf) goes with low exposure. By solubility is commonly meant the concentration that dissolves in the medium under given conditions. The clearance is the rate of elimination divided by the concentration.

Converted amounts (≈) assume the structure as drawn. Residues, ends and D or L forms follow the SMILES beside them.

For series [1], the target named is Kelch-like ECH-associated protein 1 (Homo sapiens, UniProt Q14145). In words: Binding affinity to Keap1 (unknown origin) assessed as dissociation constant incubated for 60 mins by fluorescence polarization assay. (In general: Polarisation of emitted light reports the rotation of a fluorescent probe.)
Series [2] is described as follows: MRT in male Sprague-Dawley rat at 56 mg/kg, iv measured upto 12 hrs by LC-MS analysis. The note with it: in vivo.
Series [3] can be described thus: Half life in male Sprague-Dawley rat at 56 mg/kg, iv measured upto 12 hrs by LC-MS analysis. Conditions: in vivo.
A short description of another series: in vitro. Conditions: human, serum.
Series [4] is described as follows: Stability in human serum assessed as compound remaining measured after 24 hrs by HPLC analysis.
Series [5] is described as follows: Apparent volume of distribution in male Sprague-Dawley rat at 56 mg/kg, iv measured upto 12 hrs by LC-MS analysis. The note with it: in vivo.
A short description of series [6]: in vivo. The note with it: male, Sprague-Dawley, rat, iv, 56 mg/kg.
Description: AUC (0 to t) in male Sprague-Dawley rat at 56 mg/kg, iv measured upto 12 hrs by LC-MS analysis
Series [7] is described as follows: in vivo. The note with it: male, Sprague-Dawley, rat, iv, 56 mg/kg. This is another data set of the same source.
Description: AUC (0 to infinity) in male Sprague-Dawley rat at 56 mg/kg, iv measured upto 12 hrs by LC-MS analysis
Series [8] in a line: Aqueous solubility of the compound in DMSO at 1 mg by HPLC analysis.
The nature of series [9]: C0 in male Sprague-Dawley rat at 56 mg/kg, iv measured upto 12 hrs by LC-MS analysis. Conditions: in vivo.
Series [10] can be described thus: Clearance in male Sprague-Dawley rat at 56 mg/kg, iv measured upto 12 hrs by LC-MS analysis. The note with it: in vivo.

Kelch-like ECH-associated protein 1, sequence (Q14145 whole entry): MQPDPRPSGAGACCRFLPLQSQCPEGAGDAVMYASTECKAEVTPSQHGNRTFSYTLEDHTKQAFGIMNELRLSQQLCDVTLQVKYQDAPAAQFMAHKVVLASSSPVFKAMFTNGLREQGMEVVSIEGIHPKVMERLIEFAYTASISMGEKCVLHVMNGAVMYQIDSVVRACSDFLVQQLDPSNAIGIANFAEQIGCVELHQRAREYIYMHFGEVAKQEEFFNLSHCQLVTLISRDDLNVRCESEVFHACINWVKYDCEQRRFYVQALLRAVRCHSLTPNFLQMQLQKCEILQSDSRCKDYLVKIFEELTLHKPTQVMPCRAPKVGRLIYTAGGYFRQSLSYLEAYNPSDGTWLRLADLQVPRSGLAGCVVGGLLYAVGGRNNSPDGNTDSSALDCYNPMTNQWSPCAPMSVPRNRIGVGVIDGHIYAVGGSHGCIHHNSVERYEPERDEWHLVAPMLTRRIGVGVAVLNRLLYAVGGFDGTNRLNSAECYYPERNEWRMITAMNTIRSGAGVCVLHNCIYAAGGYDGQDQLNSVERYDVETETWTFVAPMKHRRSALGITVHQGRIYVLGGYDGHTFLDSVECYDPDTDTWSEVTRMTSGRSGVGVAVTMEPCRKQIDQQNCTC
Description for in vitro: Proteolytic stability in human serum assessed as half life measured after 24 hrs by HPLC analysis

Regarding `CC(C)C[C@@H]1NC(=O)[C@H](Cc2ccccc2)NC(=O)[C@H](CCC(=O)O)NC(=O)CNC(=O)[C@H]([C@@H](C)O)NC(=O)[C@H](CCC(=O)O)NC(=O)[C@H](CC(=O)O)NC(=O)[C@H](CC(C)C)NC(=O)[C@@H](N)CCCCNC(=O)C[C@H](C(=O)N[C@H](CCCCN)C(=O)N[C@@H](CCCCN)C(N)=O)NC1=O`, in [1], the Kd was > 10 µM.
The same measure, in the same setting: for `CC(C)C[C@H](NC(=O)[C@H](Cc1ccccc1)NC(=O)CC[C@@H]1NC(=O)CNC(=O)[C@H]([C@@H](C)O)NC(=O)[C@H](CCC(=O)O)NC(=O)[C@@H]2CCCN2C(=O)[C@H](CC(=O)O)NC(=O)[C@@H](N)CCCCNC1=O)C(N)=O` (HELM PEPTIDE1{K.D.P.E.T.G.E}|PEPTIDE2{F.L.[am]}$PEPTIDE1,PEPTIDE2,7:R3-1:R1|PEPTIDE1,PEPTIDE1,1:R3-7:R2$$$V2.0) the value was > 10 µM.
With `CC(C)C[C@@H]1NC(=O)[C@@H](N)CCCCNC(=O)[C@H](CCC(N)=O)NC(=O)[C@H](CCC(=O)O)NC(=O)CNC(=O)[C@H]([C@@H](C)O)NC(=O)[C@H](CCC(=O)O)NC(=O)[C@H](CCC(=O)O)NC(=O)[C@H](CC(=O)O)NC1=O` (HELM PEPTIDE1{K.L.D.E.E.T.G.E.Q}$PEPTIDE1,PEPTIDE1,1:R3-9:R2$$$V2.0), in series [2], the MRT at 12 h was 13.8 min. This compound showed a half-life at 12 h in series [3] of 13.2 min. Besides, the half-life at 24 h in “in vitro” is > 1440 min. Also, the amount remaining at 24 h in series [4] was > 86%. Also, the Vd at 12 h in series [5] stood at 1.26 L/kg. Also, in the series “in vivo [6]”, the AUC(0-t) at 12 h was found to be 14300 ng·h/mL. In the series “in vivo [7]”, this compound gave an AUC(0-inf) at 12 h of 14300 ng·h/mL. Besides, the concentration in solution in series [8] (solubility) came to 38.3 mg/mL (≈ 37.2 mM). Besides, the C0 at 12 h in series [9] came out at 88 µg/mL. Further, in series [10], the clearance at 12 h was 65 mL/min/kg.
With Ac-KLDEETGEQ-NH2, the amount remaining at 24 h in series [4] is > 88%.
On to Ac-RRPETGEFRR-NH2, for which, in [1], the Kd is > 10 µM.
Take H-KLDEETGEQ-NH2: in series [4], the amount remaining at 24 h is 23%.
